Assay results: US20170231922A1, “3, 5-DIHYDROXY-4-ISOPROPYLSTILBENE (DHIS) AS MITICIDAL AGENT AND ITS THERAPEUTIC USES” (Horizon GenoMed Therapeutics, Inc, priority 2016, published 2017)

Columns and labels:
D. folliculorum = assay: In vitro miticidal assay, survival of isolated human demodex mites under microscopy; conditions: for Number mites dead / (%) mites dead: D. folliculorum; for Number mites dead: 30 mites per slide
Protocol: (§1) DHIS has potent miticidal activities. As described herein, an in vitro miticidal assay was performed to determine the miticidal activities of DHIS by using human demodex mites prepared with pressure scraping method, following by microscopic examination of the survival time of demodex under microscopy, using the method described in Chinese Journal of Parasitology and Parasitic Diseases 2011; 29:258-263.
(§2) In vitro miticidal assay was performed using human demodex mites prepared with pressure scraping method, following by microscopic examination of the survival time of demodex under microscopy, using the method described in Chinese Journal of Parasitology and Parasitic Diseases (Supra).
(§3) […] The slides were incubated at room temperature (20° C.) and under 70% humidity. The slides were examined under microscopy every 60 minutes for 8 hours after treatment. At each time point, the percentage of dead mites (no movements for 1 minute) was recorded for each treatment concentration.

D. bravis = assay: as above; conditions: for Number mites dead: 30 mites per slide
Protocol: as §1, §2, §3

demodex mites [1] = assay: Case study, rosacea patient; format: in vivo, human; conditions: Case 1, person with rosacea, DHIS 0.75% cream BID for 4 weeks
Excerpt: Case 1 involved a person with rosacea for 11 years. They had facial erythema and papules and pustules, with mild telangiectasia. There was burning sensation. This was associated with mild rhinophyma. There was foreign body sensation in the eyes. They had received tetracycline and sulfonamide based creams with no obvious improvement. At base line, there was more than usual number of demodex mites. They received DHIS 0.75% cream treatment BID for 4 weeks. […] See photos of the rosacea patient prior to treatment (FIG. 3A) and after 4 weeks of treatment (FIG. 3B).

demodex mites [2] = assay: Topical DHIS cream in volunteers with papulopustular rosacea (FIG. 1); format: in vivo, human; conditions: DHIS 0.75% cream twice daily
Protocol: (§4) A total of 20 volunteers (10 with papulopustular rosacea, 10 with papulopustular acne vulgaris) were recruited for this observation.
(§5) For each volunteer, the duration of the condition, the baseline sign and symptoms of their facial conditions and the severity of their condition were recorded. For the signs of the condition, papules and pustules were counted as total number for each individual. Erythema was rated as severe (3, deep red to purple), moderate (2, red), mild (1, pink), or none (0, normal color). For burning and pruritus, visual analogue scale (10 cm line) was used, with the score recorded from 0 (no symptoms) to 10 cm (most severe). In addition, the baseline demodex mite density of the perinasal skin was measured using the modified pressure-scraping technique. For the purpose of this study, both D. folliculorum and D. bravis were counted together. Then each volunteer used DHIS topical cream at 0.75% concentration, twice daily to the affected areas on the face. They were seen again at 4 weeks, when the clinical signs and symptoms were recorded. Further the demodex mite density was assessed again using the modified pressure/scraping technique.
(§6) Individuals with papulopustular rosacea (FIG. 1, N=10) and acne (FIG. 2, N=10) received DHIS 0.75% cream twice daily for 4 weeks. The demodex mite density (mite/cm^2) and clinical signs/symptoms are assessed at the baseline and again at 4 weeks. Papules and pustules are counted or the entire facial area for each individual. Erythema was graded as mild (1, pink), moderate (2, red), or severe (3, purple-red), whereas itchiness and burning sensation were graded according to a 10 cm visual analogue scale. * denotes p<0.05 (t-test)

demodex mites [3] = assay: Case study, acne patient; format: in vivo, human; conditions: Case 2, person with acne, DHIS 0.75% cream BID, 4 weeks
Excerpt: Case 2 involved a person with more than 3 years of acnes symptoms. They had open comedons as well as closed comedons. There were papules and pustules but only mild erythema. They had received topical retinoic acid therapy with no improvement. In addition, they received benzoyl peroxide/antibiotic combination topical therapy, oral birth control pills, oral tetracycline, as well as oral Traditional Chinese Medicine concoction, all without satisfactory effects. They had increased demodex mite count at base line. […] Their facial acne papules and pustules resolved at the end of 4 weeks. See photos of the acne patient (cheeks and forehead) prior to treatment (FIGS. 4A and 5A) and after 4 weeks of treatment (FIGS. 4B and 5B).

demodex mites [4] = assay: Topical DHIS cream in volunteers with papulopustular acne vulgaris (FIG. 2); format: in vivo, human; conditions: acne patients, DHIS 0.75% cream twice daily
Protocol: as §4, §5, §6

`CC(C)c1c(O)cc(/C=C/c2ccccc2)cc1O` [DHIS, 3,5-Dihydroxy-4-isopropyl-trans-stilbene] was tested, and the Number mites dead (D. folliculorum; DHIS 1 μM, 0 hr) was 0, the “(%) mites dead” value (D. folliculorum; DHIS 1 μM, 1 hr) was “(10) %” and the Number mites dead (D. folliculorum; DHIS 1 μM, 1 hr) was 3. The “(%) mites dead” value (D. folliculorum; DHIS 1 μM, 2 hr) was “(17) %”, the Number mites dead (D. folliculorum; DHIS 1 μM, 2 hr) was 5 and the “(%) mites dead” value (D. folliculorum; DHIS 1 μM, 3 hr) was “(28) %”. For the same molecule, the Number mites dead (D. folliculorum; DHIS 1 μM, 3 hr) was 8.6, the “(%) mites dead” value (D. folliculorum; DHIS 1 μM, 4 hr) was “(43) %” and the Number mites dead (D. folliculorum; DHIS 1 μM, 4 hr) was 13. The Number mites dead (D. folliculorum; DHIS 10 μM, 0 hr) was 0, the “(%) mites dead” value (D. folliculorum; DHIS 10 μM, 1 hr) was “(23) %” and the Number mites dead (D. folliculorum; DHIS 10 μM, 1 hr) was 7. The “(%) mites dead” value (D. folliculorum; DHIS 10 μM, 2 hr) was “(41) %”, the Number mites dead (D. folliculorum; DHIS 10 μM, 2 hr) was 12.3 and the “(%) mites dead” value (D. folliculorum; DHIS 10 μM, 3 hr) was “(47) %”. For the same molecule, the Number mites dead (D. folliculorum; DHIS 10 μM, 3 hr) was 14, the “(%) mites dead” value (D. folliculorum; DHIS 10 μM, 4 hr) was “(73) %” and the Number mites dead (D. folliculorum; DHIS 10 μM, 4 hr) was 22. For the same molecule, the Number mites dead (D. folliculorum; DHIS 100 μM, 0 hr) was 0, the “(%) mites dead” value (D. folliculorum; DHIS 100 μM, 1 hr) was “(33) %” and the Number mites dead (D. folliculorum; DHIS 100 μM, 1 hr) was 10. For the same molecule, the “(%) mites dead” value (D. folliculorum; DHIS 100 μM, 2 hr) was “(72) %”, the Number mites dead (D. folliculorum; DHIS 100 μM, 2 hr) was 21.7 and the “(%) mites dead” value (D. folliculorum; DHIS 100 μM, 3 hr) was “(87) %”. For the same molecule, the Number mites dead (D. folliculorum; DHIS 100 μM, 3 hr) was 26, the “(%) mites dead” value (D. folliculorum; DHIS 100 μM, 4 hr) was “(92) %” and the Number mites dead (D. folliculorum; DHIS 100 μM, 4 hr) was 27.7. For the same molecule, the Number mites dead (D. folliculorum; DHIS 1.0 mM, 0 hr) was 0, the “(%) mites dead” value (D. folliculorum; DHIS 1.0 mM, 1 hr) was “(43) %” and the Number mites dead (D. folliculorum; DHIS 1.0 mM, 1 hr) was 13. For the same molecule, the “(%) mites dead” value (D. folliculorum; DHIS 1.0 mM, 2 hr) was “(80) %”, the Number mites dead (D. folliculorum; DHIS 1.0 mM, 2 hr) was 24 and the “(%) mites dead” value (D. folliculorum; DHIS 1.0 mM, 3 hr) was “(93) %”. For the same molecule, the Number mites dead (D. folliculorum; DHIS 1.0 mM, 3 hr) was 28, the “(%) mites dead” value (D. folliculorum; DHIS 1.0 mM, 4 hr) was “(97) %” and the Number mites dead (D. folliculorum; DHIS 1.0 mM, 4 hr) was 29. For the same molecule, the “miticidal activity in vitro” value (D. folliculorum; human demodex mites, Example 1) was “dose-dependent miticidal activity”, the Number mites dead (D. bravis; DHIS 1 μM, 0 hr) was 0 and the “(%) mites dead” value (D. bravis; DHIS 1 μM, 1 hr) was “(6.7) %”. The Number mites dead (D. bravis; DHIS 1 μM, 1 hr) was 2, the “(%) mites dead” value (D. bravis; DHIS 1 μM, 2 hr) was “(13) %” and the Number mites dead (D. bravis; DHIS 1 μM, 2 hr) was 4. For the same molecule, the “(%) mites dead” value (D. bravis; DHIS 1 μM, 3 hr) was “(23) %”, the Number mites dead (D. bravis; DHIS 1 μM, 3 hr) was 7 and the “(%) mites dead” value (D. bravis; DHIS 1 μM, 4 hr) was “(33) %”. For the same molecule, the Number mites dead (D. bravis; DHIS 1 μM, 4 hr) was 10, the Number mites dead (D. bravis; DHIS 10 μM, 0 hr) was 0 and the “(%) mites dead” value (D. bravis; DHIS 10 μM, 1 hr) was “(20) %”. For the same molecule, the Number mites dead (D. bravis; DHIS 10 μM, 1 hr) was 6, the “(%) mites dead” value (D. bravis; DHIS 10 μM, 2 hr) was “(37) %” and the Number mites dead (D. bravis; DHIS 10 μM, 2 hr) was 11. For the same molecule, the “(%) mites dead” value (D. bravis; DHIS 10 μM, 3 hr) was “(47) %”, the Number mites dead (D. bravis; DHIS 10 μM, 3 hr) was 14 and the “(%) mites dead” value (D. bravis; DHIS 10 μM, 4 hr) was “(63) %”. For the same molecule, the Number mites dead (D. bravis; DHIS 10 μM, 4 hr) was 19, the Number mites dead (D. bravis; DHIS 100 μM, 0 hr) was 0 and the “(%) mites dead” value (D. bravis; DHIS 100 μM, 1 hr) was “(40) %”. For the same molecule, the Number mites dead (D. bravis; DHIS 100 μM, 1 hr) was 12, the “(%) mites dead” value (D. bravis; DHIS 100 μM, 2 hr) was “(63) %” and the Number mites dead (D. bravis; DHIS 100 μM, 2 hr) was 19. For the same molecule, the “(%) mites dead” value (D. bravis; DHIS 100 μM, 3 hr) was “(80) %”, the Number mites dead (D. bravis; DHIS 100 μM, 3 hr) was 24 and the “(%) mites dead” value (D. bravis; DHIS 100 μM, 4 hr) was “(87) %”. The Number mites dead (D. bravis; DHIS 100 μM, 4 hr) was 26, the Number mites dead (D. bravis; DHIS 1.0 mM, 0 hr) was 0 and the “(%) mites dead” value (D. bravis; DHIS 1.0 mM, 1 hr) was “(47) %”. For the same molecule, the Number mites dead (D. bravis; DHIS 1.0 mM, 1 hr) was 14, the “(%) mites dead” value (D. bravis; DHIS 1.0 mM, 2 hr) was “(60) %” and the Number mites dead (D. bravis; DHIS 1.0 mM, 2 hr) was 18. For the same molecule, the “(%) mites dead” value (D. bravis; DHIS 1.0 mM, 3 hr) was “(87) %”, the Number mites dead (D. bravis; DHIS 1.0 mM, 3 hr) was 26 and the “(%) mites dead” value (D. bravis; DHIS 1.0 mM, 4 hr) was “(87) %”. For the same molecule, the Number mites dead (D. bravis; DHIS 1.0 mM, 4 hr) was 26, the demodex mite density (demodex mites [1]) was “markedly decreased” and the “rosacea signs and symptoms” value (demodex mites [1]) was “dramatically improved”. For the same molecule, the erythema (demodex mites [2]; 4 weeks) was “reduced erythema was also statistically significant”, the “itchiness and burning sensation” value (demodex mites [2]; 4 weeks) was “reduced” and the “lesional counts for papules and pustules” value (demodex mites [2]; 4 weeks) was “dramatic reduction”. For the same molecule, the demodex mite density (demodex mites [2]; 4 weeks compared with baseline) was “significant reduction”, the “facial acne papules and pustules” value (demodex mites [3]) was “resolved” and the “facial demodex mite density” value (demodex mites [3]) was “significantly decreased”. For the same molecule, the erythema (demodex mites [4]; 4 weeks) was “reduced erythema was also statistically significant”, the “itchiness and burning sensation” value (demodex mites [4]; 4 weeks) was “reduced” and the “lesional counts for papules and pustules” value (demodex mites [4]; 4 weeks) was “dramatic reduction”. For the same molecule, the demodex mite density (demodex mites [4]; 4 weeks compared with baseline) was “significant reduction”.
